Activity calls are given as the source filed them. The calls are words filed in the database; no cut-off is given here.
Columns and labels:
Format in all cases: functional
[1] = Cytotoxicity against human Caki1 cells at 10 uM after 48 hrs by SRB assay; conditions: CAKI-1, 48 h, read-out: GI
[2] = Cytotoxicity against human RXF393 cells at 10 uM after 48 hrs by SRB assay; conditions: RXF 393, 48 h, read-out: GI
SN12C = assay: Cytotoxicity against human SN12C cells at 10 uM after 48 hrs by SRB assay; conditions: read-out: GI
TK-10 = assay: Cytotoxicity against human TK10 cells at 10 uM after 48 hrs by SRB assay
[3] = Cytotoxicity against human UO31 cells at 10 uM after 48 hrs by SRB assay; conditions: UO-31, 48 h, read-out: GI
[4] = Cytotoxicity against human PC3 cells at 10 uM after 48 hrs by SRB assay; conditions: PC-3, 48 h, read-out: GI
[5] = Cytotoxicity against human DU145 cells at 10 uM after 48 hrs by SRB assay; conditions: DU-145, 48 h, read-out: GI
MCF7 = assay: Cytotoxicity against human MCF7 cells at 10 uM after 48 hrs by SRB assay; conditions: MCF7, 48 h, read-out: GI
MDA-MB-231 = assay: Cytotoxicity against human MDA-MB-231 cells at 10 uM after 48 hrs by SRB assay; conditions: MDA-MB-231, 48 h, read-out: GI
[6] = Cytotoxicity against human Hs 578T cells at 10 uM after 48 hrs by SRB assay; conditions: read-out: GI
BT-549 = assay: Cytotoxicity against human BT549 cells at 10 uM after 48 hrs by SRB assay
T47D = assay: Cytotoxicity against human T47D cells at 10 uM after 48 hrs by SRB assay
MDA-MB-468 = assay: Cytotoxicity against human MDA-MB-468 cells at 10 uM after 48 hrs by SRB assay; conditions: MDA-MB-468, 48 h, read-out: GI
CCRF-CEM = assay: Cytotoxicity against human CCRF-CEM cells at 10 uM after 48 hrs by SRB assay; conditions: read-out: GI
[7] = Cytotoxicity against human HL-60(TB) cells at 10 uM after 48 hrs by SRB assay; conditions: HL-60, 48 h, read-out: GI
K562 = assay: Cytotoxicity against human K562 cells at 10 uM after 48 hrs by SRB assay; conditions: K562, 48 h, read-out: GI
[8] = Cytotoxicity against human MOLT4 cells at 10 uM after 48 hrs by SRB assay; conditions: MOLT-4, 48 h, read-out: GI
[9] = Cytotoxicity against human RPMI8226 cells at 10 uM after 48 hrs by SRB assay; conditions: RPMI-8226, 48 h, read-out: GI
SR = assay: Cytotoxicity against human SR cells at 10 uM after 48 hrs by SRB assay; conditions: read-out: GI
A549 = assay: Cytotoxicity against human A549 cells at 10 uM after 48 hrs by SRB assay; conditions: A549, 48 h, read-out: GI
[10] = Cytotoxicity against human HOP62 cells at 10 uM after 48 hrs by SRB assay; conditions: HOP-62, 48 h, read-out: GI
[11] = Cytotoxicity against human HOP92 cells at 10 uM after 48 hrs by SRB assay; conditions: HOP-92, 48 h, read-out: GI
NCI-H226 = assay: Cytotoxicity against human NCI-H226 cells at 10 uM after 48 hrs by SRB assay; conditions: NCI-H226, 48 h, read-out: GI
NCI-H460 = assay: Cytotoxicity against human NCI-H460 cells at 10 uM after 48 hrs by SRB assay; conditions: NCI-H460, 48 h, read-out: GI
NCI-H522 = assay: Cytotoxicity against human NCI-H522 cells at 10 uM after 48 hrs by SRB assay; conditions: NCI-H522, 48 h, read-out: GI
COLO 205 = assay: Cytotoxicity against human COLO205 cells at 10 uM after 48 hrs by SRB assay
[12] = Cytotoxicity against human HCC2998 cells at 10 uM after 48 hrs by SRB assay; conditions: HCC 2998, 48 h, read-out: GI
[13] = Cytotoxicity against human HCT116 cells at 10 uM after 48 hrs by SRB assay; conditions: HCT-116, 48 h, read-out: GI
[14] = Cytotoxicity against human HCT15 cells at 10 uM after 48 hrs by SRB assay; conditions: HCT-15, 48 h, read-out: GI
HT-29 = assay: Cytotoxicity against human HT-29 cells at 10 uM after 48 hrs by SRB assay; conditions: HT-29, 48 h, read-out: GI
KM12 = assay: Cytotoxicity against human KM12 cells at 10 uM after 48 hrs by SRB assay; conditions: KM12, 48 h, read-out: GI
[15] = Cytotoxicity against human SW620 cells at 10 uM after 48 hrs by SRB assay; conditions: SW-620, 48 h, read-out: GI
[16] = Cytotoxicity against human SF268 cells at 10 uM after 48 hrs by SRB assay; conditions: SF-268, 48 h, read-out: GI
[17] = Cytotoxicity against human SF295 cells at 10 uM after 48 hrs by SRB assay; conditions: SF-295, 48 h, read-out: GI
[18] = Cytotoxicity against human SF539 cells at 10 uM after 48 hrs by SRB assay; conditions: SF-539, 48 h, read-out: GI
SNB-19 = assay: Cytotoxicity against human SNB19 cells at 10 uM after 48 hrs by SRB assay
[19] = Cytotoxicity against human SNB75 cells at 10 uM after 48 hrs by SRB assay; conditions: SNB-75, 48 h, read-out: GI
[20] = Cytotoxicity against human LOXIMVI cells at 10 uM after 48 hrs by SRB assay; conditions: LOX IMVI, read-out: GI
Malme-3M = assay: Cytotoxicity against human MALME-3M cells at 10 uM after 48 hrs by SRB assay; conditions: read-out: GI
M14 = assay: Cytotoxicity against human M14 cells at 10 uM after 48 hrs by SRB assay
MDA-MB-435 = assay: Cytotoxicity against human MDA-MB-435 cells at 10 uM after 48 hrs by SRB assay; conditions: MDA-MB-435, 48 h, read-out: GI
SK-MEL-2 = assay: Cytotoxicity against human SK-MEL-2 cells at 10 uM after 48 hrs by SRB assay
SK-MEL-28 = assay: Cytotoxicity against human SK-MEL-28 cells at 10 uM after 48 hrs by SRB assay
SK-MEL-5 = assay: Cytotoxicity against human SK-MEL-5 cells at 10 uM after 48 hrs by SRB assay; conditions: SK-MEL-5, 48 h, read-out: GI
[21] = Cytotoxicity against human UACC257 cells at 10 uM after 48 hrs by SRB assay; conditions: UACC-257, 48 h, read-out: GI
[22] = Cytotoxicity against human UACC62 cells at 10 uM after 48 hrs by SRB assay; conditions: UACC-62, 48 h, read-out: GI
[23] = Cytotoxicity against human IGROV1 cells at 10 uM after 48 hrs by SRB assay; conditions: IGROV-1, 48 h, read-out: GI
[24] = Cytotoxicity against human OVCAR3 cells at 10 uM after 48 hrs by SRB assay; conditions: OVCAR-3, 48 h, read-out: GI
[25] = Cytotoxicity against human OVCAR4 cells at 10 uM after 48 hrs by SRB assay; conditions: OVCAR-4, 48 h, read-out: GI
[26] = Cytotoxicity against human OVCAR5 cells at 10 uM after 48 hrs by SRB assay; conditions: OVCAR-5, 48 h, read-out: GI
[27] = Cytotoxicity against human OVCAR8 cells at 10 uM after 48 hrs by SRB assay; conditions: OVCAR-8, 48 h, read-out: GI
NCI/ADR-RES = assay: Cytotoxicity against human NCI-ADR-RES cells at 10 uM after 48 hrs by SRB assay
SK-OV-3 = assay: Cytotoxicity against human SKOV3 cells at 10 uM after 48 hrs by SRB assay
786-0 = assay: Cytotoxicity against human 786-0 cells at 10 uM after 48 hrs by SRB assay; conditions: 786-0, 48 h, read-out: GI
A498 = assay: Cytotoxicity against human A498 cells at 10 uM after 48 hrs by SRB assay; conditions: A498, 48 h, read-out: GI
ACHN = assay: Cytotoxicity against human ACHN cells at 10 uM after 48 hrs by SRB assay; conditions: read-out: GI

Cc1nc2cc(Nc3nc(Nc4ccc(O)cc4)nc(Nc4ccc(F)cc4)n3)ccc2n1Cc1ccccc1
inhibition of growth at 10 µM [1]: 4.53%
inhibition of growth at 10 µM [2]: 18.8%
inhibition of growth at 10 µM (SN12C): 2.54%
growth inhibition (GI) (TK-10): inactive
inhibition of growth at 10 µM [3]: 6.02%
inhibition of growth at 10 µM [4]: 10.7%
inhibition of growth at 10 µM [5]: 41.6%
inhibition of growth at 10 µM (MCF7): 16%
inhibition of growth at 10 µM (MDA-MB-231): 11.3%
inhibition of growth at 10 µM [6]: 1.42%
growth inhibition (GI) (BT-549): inactive
growth inhibition (GI) (T47D): inactive
inhibition of growth at 10 µM (MDA-MB-468): 13.4%
inhibition of growth at 10 µM (CCRF-CEM): 8.15%
inhibition of growth at 10 µM [7]: 6.96%
inhibition of growth at 10 µM (K562): 21.3%
inhibition of growth at 10 µM [8]: 19.8%
inhibition of growth at 10 µM [9]: 26.7%
inhibition of growth at 10 µM (SR): 20.8%
inhibition of growth at 10 µM (A549): 22.2%
inhibition of growth at 10 µM [10]: 3.47%
inhibition of growth at 10 µM [11]: 17.8%
inhibition of growth at 10 µM (NCI-H226): 12.8%
inhibition of growth at 10 µM (NCI-H460): 18.2%
inhibition of growth at 10 µM (NCI-H522): 15.1%
growth inhibition (GI) (COLO 205): inactive
inhibition of growth at 10 µM [12]: 4.67%
inhibition of growth at 10 µM [13]: 10.6%
inhibition of growth at 10 µM [14]: 17.3%
inhibition of growth at 10 µM (HT-29): 4.8%
inhibition of growth at 10 µM (KM12): 17.6%
inhibition of growth at 10 µM [15]: 18.8%
inhibition of growth at 10 µM [16]: 11.2%
inhibition of growth at 10 µM [17]: 5.35%
inhibition of growth at 10 µM [18]: 6.34%
growth inhibition (GI) (SNB-19): inactive
inhibition of growth at 10 µM [19]: 15.1%
inhibition of growth at 10 µM [20]: 3.79%
inhibition of growth at 10 µM (Malme-3M): 0.89%
growth inhibition (GI) (M14): inactive
inhibition of growth at 10 µM (MDA-MB-435): 4.26%
growth inhibition (GI) (SK-MEL-2): inactive
growth inhibition (GI) (SK-MEL-28): inactive
inhibition of growth at 10 µM (SK-MEL-5): 5.6%
inhibition of growth at 10 µM [21]: 3.73%
inhibition of growth at 10 µM [22]: 3.94%
inhibition of growth at 10 µM [23]: 2.23%
inhibition of growth at 10 µM [24]: 8.38%
inhibition of growth at 10 µM [25]: 12.8%
inhibition of growth at 10 µM [26]: 3.66%
inhibition of growth at 10 µM [27]: 22.2%
growth inhibition (GI) (NCI/ADR-RES): inactive
growth inhibition (GI) (SK-OV-3): inactive
inhibition of growth at 10 µM (786-0): 6.04%
inhibition of growth at 10 µM (A498): 13.4%
inhibition of growth at 10 µM (ACHN): 8.7%
